In PMC7211193, “Evaluation of absorption, distribution, metabolism, and excretion of [^14C]-rucaparib, a poly(ADP-ribose) polymerase inhibitor, in patients with advanced solid tumors” (Investigational New Drugs, 2019):
Several values for one entry are separate records, joined by “and”; a condition that tells them apart may be missing. Equal entries are not always repeated.

Columns and labels:
[1] = Total radioactivity (TRA) pharmacokinetics in plasma and blood by liquid scintillation counting; format: in vivo, human; details: for Cmax, total radioactivity in plasma: patients N = 6
Procedure: Six patients received a single oral dose of [^14C]-rucaparib 600 mg (approximately 5.18 MBq or 140 μCi) on day 1 after fasting for 10 h and were confined at the study site for the collection of blood samples and excreta for a maximum of 12 days.
Blood samples were collected in K2 ethylenediaminetetraacetic acid (K2-EDTA) tubes at the following time points: 0 (predose), 1, 2, 3, 4, 8, 12, 24, 48, 72, 96, 120, and 144 h after administration. Blood samples were taken via an indwelling intravenous catheter or by direct vein puncture into appropriate tubes. Aliquots of blood samples were centrifuged at 1600–2000×g for 10 min at 4 °C, and supernatants were collected for plasma samples. All plasma and blood samples were stored at −70 °C until analysis. Plasma and blood samples were evaluated for total radioactivity (TRA) by liquid scintillation (LSC), parent drug concentrations by liquid chromatography (LC) with tandem mass spectrometry (MS/MS) analyses, and metabolite profiling by LC coupled to diode array ultraviolet (UV) detection and MS or radioactivity detection.
TRA analysis was performed on a Liquid Scintillation Counter Tri-Carb Model 3100TR (PerkinElmer). Aliquots of blood (300 μL), plasma (250 μL), and urine (1 mL) were transferred to scintillation vials. Blood samples were incubated at ≥60 °C with SOLVABLE (1 mL). After cooling to room temperature, EDTA (0.1 M, 100 μL) and hydrogen peroxide (225 μL) were added to dissolve blood cells, reduce foaming, and decrease color intensity. Finally, after incubation at ≥45 °C and ≥60 °C, Ultima Gold (≥5-fold) was added, and the samples were analyzed with LSC. For urine samples, Ultima Gold (≥5-fold) was added, and the samples were analyzed with LSC.
Blood and plasma TRA data and the plasma concentration of rucaparib were used to determine the Cmax, tmax, AUC from time zero to time of last measurable concentration (AUC0-t), and AUC from time zero to infinity (AUC0-inf), apparent volume of distribution (Vd/F), apparent clearance (CL/F), and terminal half-life (t1/2). Phoenix WinNonlin software version 6.3 or higher (Certara, Princeton, NJ, USA) was used to run a noncompartmental method analysis on the PK data.

[2] = Metabolite profiling in pooled urine (LC-MS-Radiomatic); format: in vivo, human; details: for % Dose in urine: pooled urine, % of administered dose
Procedure: For each patient, urine samples from different collection intervals were pooled in proportion to their sample weight in order to obtain a pooled sample covering 90% of the TRA in urine. Pooled urine samples were lyophilized and then extracted at least twice with acetonitrile. The obtained supernatant was evaporated to dryness, and the dried residues were reconstituted in 20% acetonitrile in water containing 0.1% TFA. An aliquot of the supernatant was analyzed for TRA to determine extraction efficiency, and the mean recovery was ≈70%. Aliquots of the supernatants were injected into the HPLC coupled to UV and radioactive detectors to obtain metabolite profiles. The samples were also analyzed using LC-MS for metabolite identification.
Metabolite profiling and identification were performed on an LC system (Agilent) coupled to an LTQ Orbitrap mass spectrometer (Thermo Electron, Waltham, MA, USA) in combination with offline TopCount (LC-MS-TopCount) or online Radiomatic 625TR (LC-MS-Radiomatic; PerkinElmer). Proposed structures of the metabolites were based on accurate mass (<5 ppm) and comparison of mass spectral data of parent compound rucaparib and metabolite standard M324. The Radiomatic 625TR flow detector, equipped with a 200 μL flow cell, was operated using scintillation cocktail (Ultima-Flo M) delivered at a flow rate of 1 mL/min. Chromatography was done using a Phenomenex (Torrance, CA, USA) Luna Phenyl-Hexyl column (250 × 2 mm, 5 μm, 100 Å) at ambient temperature during the sample analysis. The mobile phase was (A) 0.05% TFA in water and (B) 0.05% TFA in acetonitrile, with a 0.2 mL/min flow rate. The gradient was as follows: 5% B over 2.1 min, to 20% B in 1.0 min, to 35% B in 16.9 min, isocratic at 35% B for 5 min, to 95% B over 5 min, and reduced to 5% B over 1 min, with total run time 45 min.
The abundance of unchanged rucaparib and metabolites identified in plasma, urine, and feces was determined as a percentage of the TRA in the analyzed samples. Percentage of the administered dose of rucaparib and metabolites was calculated in urine and feces (formula A). The concentration of rucaparib and its metabolites in plasma (ng Eq h/mL) was calculated based on the specific activity, TRA, and percentage of peaks (formula B). The AUC0-24h value of rucaparib and its major metabolite M324 in plasma was calculated using both Hamilton method (formula C) and linear trapezoidal method (formula D). • (A) %Doseofmetabolite=TRAinurineorfeces(dpm)÷TRAinadministereddose(dpm)×%metabolitesinmatrix • (B) Metaboliteconcentrationsinplasma(ngEq/mL)=TRAinplasma(dpm/mL)specificactivity(ngEq/dpm)×%metabolitesinthematrix • (C) Hamiltonmethod:AUC0−24h(ngEqh/mL)=concentrationinHamilton(AUC0−24h)pooledplasma(ngEq/mL)×24(h) • (D) Lineartrapezoidalmethod:AUC0−24h(ngEqh/mL)=C1h/2×1h+C1h+C4h/2×(4h−1h)+C4h+C8h/2×(8h−4h)+C8h+C24h/2×(24h−8h)

[3] = cited from earlier work
[4] = single oral [14C]-rucaparib 600 mg, N = 6, mean ± SD
[5] = single oral [14C]-rucaparib 600 mg, N = 6, mean ± SD, listed as rucaparib
[6] = single oral [14C]-rucaparib 600 mg, N = 6, median (range)
[7] = single oral 600 mg, versus fasted

## CNCc1ccc(-c2[nH]c3cc(F)cc4c3c2CCNC4=O)cc1 [Rucaparib, rucaparib]
[1]; in vivo
  AUC0-24h/AUC0-inf ratio, blood TRA: 0.563
  AUC0-24h/AUC0-inf ratio, plasma TRA: 0.461
[1]; [4]
  AUC0-inf, total radioactivity in blood: 25,500 ± 5510 ng Eq h/mL
  AUC0-inf, total radioactivity in plasma: 30,000 ± 7810 ng Eq h/mL
  AUC0-t, total radioactivity in blood: 18,100 ± 5460 ng Eq h/mL
  AUC0-t, total radioactivity in plasma: 24,100 ± 8580 ng Eq h/mL
  Blood to plasma ratio of total radioactivity, AUC0-inf: 0.781 ± 0.041
  Blood to plasma ratio of total radioactivity, Cmax: 1.00 ± 0.12
  CL/F, total radioactivity in blood: 22.6 ± 2.22 L/h
  CL/F, total radioactivity in plasma: 19.6 ± 4.83 L/h
  Cmax, total radioactivity in blood: 882 ± 355 ng Eq/mL
  Vd/F, total radioactivity in blood: 911 ± 246 L
  Vd/F, total radioactivity in plasma: 814 ± 129 L
  t1/2, total radioactivity in blood: 28.3 ± 8.49 h
  t1/2, total radioactivity in plasma: 30.4 ± 8.89 h
[1]; [5]
  Blood to plasma ratio of total radioactivity, Cmax: 1.0
  t1/2, total radioactivity in blood: > 25 h
  t1/2, total radioactivity in plasma: > 25 h and 30.4 h
[1]; [6]
  tmax, total radioactivity in blood: 4 (0.933–8.00) h
  tmax, total radioactivity in plasma: 4 (0.933–8.00) h
[1]; single oral [14C]-rucaparib 600 mg, N = 6, median (range), listed as [^14C]-rucaparib
  tmax, total radioactivity in blood: approximately 4 h
[1]; single oral [14C]-rucaparib 600 mg, N = 6, median (range), listed as rucaparib
  tmax, total radioactivity in blood: 4 h
[1]; single oral [14C]-rucaparib 600 mg, mean ± SD
  Cmax, total radioactivity in plasma: 880 ± 309 ng Eq/mL
[1]; single oral [14C]-rucaparib 600 mg, mean ± SD, listed as rucaparib
  Cmax, total radioactivity in plasma: 880 ng Eq/mL
[2]; Patient 01
  % of dose in pooled urine, Patient 01: 14.3 % dose
[2]; Patient 03
  % of dose in pooled urine, Patient 03: 5.03 % dose
[2]; Patient 05
  % of dose in pooled urine, Patient 05: 2.85 % dose
[2]; Patient 06
  % of dose in pooled urine, Patient 06: 5.96 % dose
[2]; Patient 08
  % of dose in pooled urine, Patient 08: 10.7 % dose
[2]; Patient 09
  % of dose in pooled urine, Patient 09: 6.77 % dose
[2]; pooled urine covering 90% of urine radioactivity, N = 6, mean ± SD
  % Peak (of TRA) in urine: 44.9 ± 15.6%
[2]; N = 6, mean ± SD
  % Dose in urine: 7.59 ± 4.16%
[2]; N = 6, mean ± SD, listed as rucaparib
  % Dose in urine: ≈ 7.6% and > 7%
[3]; 600 mg BID
  Accumulation at steady state: approximately four-fold
  Time of dosing to achieve steady state: 1 week
[3]; 40–500 mg QD and 240–840 mg BID
  Dose proportionality of plasma exposure: dose proportional
[3]; 40–500 mg once daily, Study 10
  Median tmax, QD dosing: 1.5 to 6.0 h
[3]; 240–840 mg twice daily, Study 10
  Median tmax, BID dosing: 1.5 to 4.0 h
[3]; Study 10
  Apparent steady-state clearance, BID dosing: 26.2 to 58.6 L/h
  Apparent steady-state clearance, QD dosing: 26.7 to 47.5 L/h
[3]; [7]
  Increase of AUC by a high-fat meal: 38%
  Increase of Cmax by a high-fat meal: 20%
[3]; single oral dose, dose range 40–500 mg
  t1/2 in a previous clinical trial: 11 to 29.8 h
